The values below come from US11168102B1, “Bicyclic heteroaryl compounds and uses thereof” (Revolution Medicines, Inc., priority 2019, dated 2021).

One experiment concerns cellular pERK in PC-9 cells (EGFR Ex19Del). The experiment in a line: Potency assay: pERK (AlphaLISA SureFire Ultra p-ERK1/2) in PC-9 cells. It is filed as cell-based. Conditions: Homo sapiens, PC-9, 1 h, PC-9 cells (EGFR Ex19Del), 1 hour incubation, AlphaLISA SureFire Ultra p-ERK1/2; read-out: SOS1 pERK IC50. A general note: Bead proximity is the source of the signal in Alpha formats.
One may read the IC50 as the concentration that gives 50% inhibition. As for `CO[C@@]1(c2cc3c(N[C@H](C)c4cccc(C(F)F)c4F)ncnc3n(C)c2=O)C[C@@H](C)N(C(C)=O)C1` [Example 32-48], the IC50 turned out to be 5.4 nM.
Turning to `CO[C@]1(c2cc3c(N[C@H](C)c4cccc(C(F)F)c4F)ncnc3n(C)c2=O)C[C@H](C)N(C(C)=O)C1` [Example 32-49], the IC50 was determined as 102 nM.
Still for that read-out and setting: then `CO[C@@]1(c2cc3c(N[C@H](C)c4cccc(C(F)F)c4F)ncnc3n(C)c2=O)C[C@H](C)N(C(C)=O)C1` [Example 32-50], with 153 nM; and `CO[C@]1(c2cc3c(N[C@H](C)c4cccc(C(F)F)c4F)ncnc3n(C)c2=O)CCN(C(C)=O)[C@H](C)C1` [Example 32-51], with 5.79 nM; and `CO[C@]1(c2cc3c(N[C@H](C)c4cccc(C(F)F)c4F)ncnc3n(C)c2=O)CCN(C(C)=O)C(C)(C)C1` [Example 32-52], with 18.1 nM.
Same read-out and setting: to `CO[C@@]1(c2cc3c(N[C@H](C)c4cccc(C(F)F)c4F)ncnc3n(C)c2=O)CCN(C(C)=O)C(C)(C)C1` [Example 32-53] belongs 199 nM; to `COCCOC1(c2cc3c(N[C@H](C)c4cccc(C(F)F)c4F)ncnc3n(C)c2=O)CCS(=O)(=O)CC1` [Example 32-54], 40.2 nM.
The same measure, in the same setting: then `COC1(c2cc3c(N[C@H](C)c4cccc(C(F)F)c4F)ncnc3n(C)c2=O)CCNC1` (stereo partly shown) [Example 32-55], with 81.6 nM.
Regarding `COC1(c2cc3c(N[C@H](C)c4cccc(C(F)F)c4F)ncnc3n(C)c2=O)CCOCC1` [Example 32-56], the IC50 stood at 93.7 nM.
The same measure, in the same setting: then `C[C@@H](Nc1ncnc2c1cc(C1(OC3COC3)CCS(=O)(=O)CC1)c(=O)n2C)c1cccc(C(F)F)c1F` [Example 32-57], with 83.9 nM.
Same read-out and setting: to `COC1(c2cc3c(N[C@H](C)c4cccc(C(F)F)c4F)nc(C)nc3n(C)c2=O)CCN(C(C)=O)C1` (stereo partly shown) [Example 32-58] belongs 13.3 nM; to `COC1(c2cc3c(N[C@H](C)c4cccc(C(F)F)c4F)ncnc3n(C)c2=O)CCC(S(C)(=O)=O)CC1` (stereo partly shown) [Example 32-59], 20.3 nM.
Turning to `COC1(c2cc3c(N[C@H](C)c4cccc(C(F)F)c4F)ncnc3n(C)c2=O)CCN(C=O)CC1` [Example 32-60], the IC50 was found to be 21.1 nM.
On the same count and under the same terms, to `COC(=O)N1CCC(OC)(c2cc3c(N[C@H](C)c4cccc(C(F)F)c4F)ncnc3n(C)c2=O)CC1` [Example 32-61] belongs 115 nM; to `CO[C@]1(c2cc3c(N[C@H](C)c4cccc(C(F)F)c4F)nc(C)nc3n(C)c2=O)CCN(C(C)=O)C1` [Example 32-62], 10.8 nM; to `C[C@@H](Nc1ncnc2c1cc(C1CC3(C1)CS(=O)(=O)C3)c(=O)n2C)c1cccc(C(F)F)c1F` [Example 33, 6-(4-{[(1R)-1-[3-(difluoromethyl)-2-fluorophenyl]ethyl]amino}-8-methyl-7-oxo-7H,8H-pyrido[2,3-d]pyrimidin-6-yl)-2λ^6-thiaspiro[3.3]heptane-2,2-dione], 145 nM.
Same read-out and setting: to `C[C@@H](Nc1ncnc2c1cc(C1CCC3(CC1)CS(=O)(=O)C3)c(=O)n2C)c1cccc(C(F)F)c1F` [Example 33-2] belongs 71.6 nM.
For `C[C@@H](Nc1ncnc2c1cc(C1CCS(=O)(=O)CC1)c(=O)n2C)c1cccc2c1OCC2(F)F` [Example 33-3], the IC50 worked out at 34.8 nM.
The same measure, in the same setting: to `C[C@@H](Nc1ncnc2c1cc(C1CCS(=O)(=O)CC1)c(=O)n2C)c1cccc(C(F)F)c1Cl` [Example 33-4] belongs 92.5 nM; to `Cc1c(C(F)F)cccc1[C@@H](C)Nc1ncnc2c1cc(C1CCS(=O)(=O)CC1)c(=O)n2C` [Example 33-5], 41.2 nM.
On the same count and under the same terms, to `C[C@@H](Nc1ncnc2c1cc(C1CN(S(C)(=O)=O)C1)c(=O)n2C)c1cccc(C(F)F)c1F` [Example 33-7] belongs 521 nM; to `C[C@@H](Nc1ncnc2c1cc(C1CCN(S(C)(=O)=O)C1)c(=O)n2C)c1cccc(C(F)F)c1F` (stereo partly shown) [Example 33-10], 335 nM.
The same measure, in the same setting: then `CC(=O)N1CC(c2cc3c(N[C@H](C)c4cccc(C(F)F)c4F)ncnc3n(C)c2=O)C1` [Example 33-11], with 169 nM.
`CC(=O)N1CC[C@@H](c2cc3c(N[C@H](C)c4cccc(C(F)F)c4F)ncnc3n(C)c2=O)C1` [Example 33-14]: the IC50 came to 271 nM.
Turning to `CC(=O)N1CC[C@H](c2cc3c(N[C@H](C)c4cccc(C(F)F)c4F)ncnc3n(C)c2=O)C1` [Example 33-15], the IC50 worked out at 113 nM.
Still for that read-out and setting: to `C[C@@H](Nc1ncnc2c1cc(C1CS(=O)(=O)C1)c(=O)n2C)c1cccc(C(F)F)c1F` [Example 33-16] belongs 87.9 nM; to `C[C@@H](Nc1ncnc2c1cc(C1CCS(=O)(=O)CC1)c(=O)n2C)c1cccc(-c2ccccc2CN)c1` [Example 33-17], 285 nM; to `C[C@@H](Nc1ncnc2c1cc(C1CCS(=O)(=O)CC1)c(=O)n2C)c1ccc(-c2ccccc2CN)s1` [Example 33-18], 53.2 nM.
The same measure, in the same setting: then `C[C@@H](Nc1ncnc2c1cc(C1CCS(=O)(=O)CC1)c(=O)n2C)c1ccc(-c2ccccc2CCN)s1` [Example 33-19], with 182 nM.
As to `C[C@@H](Nc1ncnc2c1cc(C1CCS(=O)(=NC(N)=O)CC1)c(=O)n2C)c1cccc(C(F)F)c1F` (stereo partly shown) [Example 33-24], the IC50 was found to be 293 nM.
The same measure, in the same setting: then `[2H]C(=O)N1CCC(c2cc3c(N[C@H](C)c4cccc(C(F)F)c4F)ncnc3n(C)c2=O)CC1` [Example 33-25], with 73.8 nM.

Still in this experiment, the particulars now being: PC-9 cells (EGFR Ex19Del), 1 hour incubation, AlphaLISA SureFire Ultra p-ERK1/2; read-out: SOS1 pERK IC50.
Turning to `COC1(c2cc3c(N[C@H](C)c4cccc(C(F)F)c4F)ncnc3n(C)c2=O)CCS(=O)(=O)C(C)C1` (stereo partly shown) [Example 32-64], the IC50 is 154 nM.
Same read-out and setting: to `COC1(c2cc3c(N[C@H](C)c4cccc(C(F)F)c4F)ncnc3n(C)c2=O)CCS(=O)(=O)C(C)C1` (stereo partly shown) [Example 32-65] belongs 50.3 nM; to `COC1(c2cc3c(N[C@H](C)c4cccc(C(F)F)c4F)ncnc3n(C)c2=O)CCS(=O)(=O)C(C)C1` (stereo partly shown) [Example 32-66], 127 nM; to `CC1CC(c2cc3c(N[C@H](C)c4cccc(C(F)F)c4F)ncnc3n(C)c2=O)CCS1(=O)=O` (stereo partly shown) [Example 33-8], 54.7 nM.
Same read-out and setting: then `CC1CC(c2cc3c(N[C@H](C)c4cccc(C(F)F)c4F)ncnc3n(C)c2=O)CCS1(=O)=O` (stereo partly shown) [Example 33-9], with 270 nM; and `CC1CC(c2cc3c(N[C@H](C)c4cccc(C(F)F)c4F)ncnc3n(C)c2=O)CCS1(=O)=O` (stereo partly shown) [Example 33-12], with 40.7 nM; and `CC1CC(c2cc3c(N[C@H](C)c4cccc(C(F)F)c4F)ncnc3n(C)c2=O)CCS1(=O)=O` (stereo partly shown) [Example 33-13], with 21 nM.
The same measure, in the same setting: to `C[C@@H](Nc1ncnc2c1cc(C1CCS(=O)(=O)C1)c(=O)n2C)c1cccc(C(F)F)c1F` (stereo partly shown) [Example 33-20] belongs 52.7 nM.
In the case of `C[C@@H](Nc1ncnc2c1cc(C1CCS(=O)(=O)C1)c(=O)n2C)c1cccc(C(F)F)c1F` (stereo partly shown) [Example 33-21], the IC50 worked out at 52.2 nM.
Same read-out and setting: to `C[C@@H](Nc1ncnc2c1cc(C1CCP(C)(=O)CC1)c(=O)n2C)c1cccc(C(F)F)c1F` (stereo partly shown) [Example 33-22] belongs 1200 nM; to `C[C@@H](Nc1ncnc2c1cc(C1CCP(C)(=O)CC1)c(=O)n2C)c1cccc(C(F)F)c1F` (stereo partly shown) [Example 33-23], 85.4 nM.
Still for that read-out and setting: then `C[C@@H](Nc1ncnc2c1cc(C1CCS(=N)(=O)CC1)c(=O)n2C)c1cccc(C(F)F)c1F` (stereo partly drawn) [Example 35, (R)-4-((1-(3-(difluoromethyl)-2-fluorophenyl)ethyl)amino)-6-(1-imino-1-oxidohexahydro-1λ^6-thiopyran-4-yl)-8-methylpyrido[2,3-d]pyrimidin-7(8H)-one], with 127 nM.
